We go through 31 molecules from patent US8859541B2, “6-alkynylpyridines” (Boehringer Ingelheim International GmbH, priority 2012, dated 2014).

This experiment addresses T1, XIAP BIR3 (Homo sapiens, UniProt P98170).
T1 construct: covering amino acids 241 to 356; XIAP BIR3; made in house; host or cells: E. coli
As to the kind of experiment: XIAP BIR3 binding assay (DELFIA), displacement of SMAC peptide. The conditions noted are these: GST-fusion BIR3 domain (aa 241 to 356) 10 nM, SMAC peptide 10 nM; activity of the (S)-isomers. Here is the method: Biological Methods XIAP BIR3 and cIAP1 BIR3 Binding Assays (DELFIA)
Peptide […]-Lys(Biotin), representing the N-terminus of mature human SMAC (SMAC peptide), was used as interaction partner in the protein-peptide interaction assay.
BIR3 domains (10 nM) were incubated with SMAC peptide (10 nM) in Assay Buffer (50 mM Tris, 120 mM NaCl, 0.1% BSA, 1 mM DTT, 0.05% TritonX100) for one hour at room temperature in the presence of inhibitiory compounds. The assay mixture was transferred to a strepatvidin coated plate and incubated for one hour at room temperature to allow binding of the biotinylated peptide and associated BIR3 domains to the plate. After several washing steps Eu labeled anti-GST antibody (e.g. Perkin Elmer DELFIA Eu-N1-antiGST AD0250) was added to detect BIR3 domain-SMAC peptide interactions according to Perkin Elmer's instructions. […] Time resolved Europium fluoresecence was measured in a Wallac Victor using Standard assay settings.
DELFIA assay results were plotted against compound concentrations and Software GraphPad Prizm was used to calculate half maximal inhibitory concentrations (IC50 values).

Molecules are shown by their SMILES.

T1 sequence (P98170 241-356): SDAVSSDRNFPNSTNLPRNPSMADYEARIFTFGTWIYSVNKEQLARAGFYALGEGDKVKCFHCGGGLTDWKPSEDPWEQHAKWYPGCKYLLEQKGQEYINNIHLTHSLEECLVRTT

For `CNC(C)C(=O)Nc1ccc(-c2c(C)nc3ccccn23)c(C#Cc2ccc(C#N)c(C)c2)n1` (stereo not shown) [Example 38, N-[6-[2-(4-cyano-3-methyl-phenyl)ethynyl]-5-(2-methyl-imidazo[1,2-a]pyridin-3-yl)-pyridin-2-yl]-2-(methylamino)-propanamide], the IC50 was 142 nM. Molecule `CNC(C)C(=O)Nc1ccc(-c2cnc3ccc(C#N)cn23)c(C#Cc2ccc3cnccc3c2)n1` (stereo not shown) [Example 40, N-[5-(6-cyanoimidazo[1,2-a]-pyridin-3-yl)-6-(2-isoquinolin-6-ylethynyl)pyridin-2-yl]-2-(methylamino)propanamide] yielded an IC50 of 445 nM. Under `CNC(C)C(=O)Nc1ccc(-c2c(C)nc3ccccn23)c(C#Cc2ccc3c(Cl)nccc3c2)n1` (stereo not shown) [Example 43, N-[6-[2-(1-chloroisoquinolin-6-yl)ethynyl]-5-(2-methyl-imidazo[1,2-a]pyridin-3-yl)-pyridin-2-yl]-2-(methylamino)-propanamide] stands 310 nM; under `CNC(C)C(=O)Nc1ccc(-c2c(C)nc3ccccn23)c(C#Cc2ccc3cc(F)ccc3c2)n1` (stereo not shown) [Example 51, N-[6-[2-(6-fluoronaphthalen-2-yl)ethynyl]-5-(2-methyl-imidazo[1,2-a]pyridin-3-yl)-pyridin-2-yl]-2-(methylamino)-propanamide], 453 nM; under `CNC(C)C(=O)Nc1ccc(-c2c(C)nc3ccccn23)c(C#Cc2ccc(-c3ccncn3)cc2)n1` (stereo not shown) [Example 55, 2-(methylamino)-N-[5-(2-methylimidazo[1,2-a]pyridin-3-yl)-6-[2-(4-pyrimidin-4-ylphenyl)ethynyl]pyridin-2-yl]-propanamide], 310 nM. Under `CNC(C)C(=O)Nc1ccc(-c2c(Cl)cncc2Cl)c(C#Cc2ccc3ncccc3c2)n1` (stereo not shown) [Example 56, N-[5-(3,5-dichloropyridin-4-yl)-6-(2-quinolin-6-ylethynyl)-pyridin-2-yl]-2-(methylamino)-propanamide] stands 2880 nM; under `CNC(C)C(=O)Nc1ccc(-c2cnc(SC)nc2C#N)c(C#Cc2ccc3cnccc3c2)n1` (stereo not shown) [Example 59, N-[5-(4-cyano-2-methylsulfanylpyrimidin-5-yl)-6-(2-isoquinolin-6-ylethynyl)-pyridin-2-yl]-2-(methylamino)-propanamide], 918 nM. Under `CNC(=O)c1ccc(C#Cc2nc(NC(=O)C(C)NC)ccc2-c2c(C)nc3ccccn23)cn1` (stereo not shown) [Example 62, N-methyl-5-[2-[6-[[2-(methyl-amino)propanoyl]amino]-3-(2-methylimidazo[1,2-a]pyridin-3-yl)pyridin-2-yl]ethynyl]pyridine-2-carboxamide] stands 620 nM; under `CNC(C)C(=O)Nc1ccc(-c2c(C)nc3ccccn23)c(C#Cc2ccc(-c3ccc(OC)cc3)cc2)n1` (stereo not shown) [Example 65, N-[6-[2-[4-(4-methoxyphenyl)-phenyl]ethynyl]-5-(2-methyl-imidazo[1,2-a]pyridin-3-yl)-pyridin-2-yl]-2-(methylamino)-propanamide], 1190 nM; under `CNC(C)C(=O)Nc1ccc(-c2c(C)nc3ccccn23)c(C#Cc2nc3ccccc3s2)n1` (stereo not shown) [Example 67, N-[6-[2-(1,3-benzothiazol-2-yl)-ethynyl]-5-(2-methyl-imidazo[1,2-a]pyridin-3-yl)-pyridin-2-yl]-2-(methylamino)-propanamide], 270 nM. The molecule `CNC(C)C(=O)Nc1ccc(-c2c(C)nc3cnccn23)c(C#Cc2ccc3ncccc3c2)n1` (stereo not shown) [Example 68, 2-(methylamino)-N-[5-(2-methylimidazo[1,2-a]pyrazin-3-yl)-6-(2-quinolin-6-ylethynyl)-pyridin-2-yl]propanamide] registered an IC50 of 165 nM. Compared with the last molecule, the IC50 is about 1.6-fold lower. Next, `CNC(C)C(=O)Nc1ccc(-c2c(C)nc3ccccn23)c(C#Cc2ccc3nc(OC)ccc3c2)n1` (stereo not shown) [Example 73, N-[6-[2-(2-methoxyquinolin-6-yl)ethynyl]-5-(2-methyl-imidazo[1,2-a]pyridin-3-yl)-pyridin-2-yl]-2-(methylamino)-propanamide]: 378 nM. Molecule `CNC(C)C(=O)Nc1ccc(-c2c(C)nc(N(C)C)nc2C)c(C#Cc2ccc3ncccc3c2)n1` (stereo not shown) [Example 76, N-[5-[2-(dimethylamino)-4,6-dimethylpyrimidin-5-yl]-6-(2-quinolin-6-ylethynyl)pyridin-2-yl]-2-(methylamino)propan-amide] registered an IC50 of 1070 nM. As to `CNC(C)C(=O)Nc1ccc(-c2c(C)nc(N3CCOCC3)nc2C)c(C#Cc2ccc3cnccc3c2)n1` (stereo not shown) [Example 83, N-[5-(4,6-dimethyl-2-morpholin-4-ylpyrimidin-5-yl)-6-(2-isoquinolin-6-ylethynyl)-pyridin-2-yl]-2-(methylamino)-propanamide], the IC50 was 446 nM. Consider `CNC(C)C(=O)Nc1ccc(-c2c(C)nc3ccccn23)c(C#Cc2ccc(F)c3ncccc23)n1` (stereo not shown) [Example 84, N-[6-[2-(8-fluoroquinolin-5-yl)-ethynyl]-5-(2-methyl-imidazo[1,2-a]pyridin-3-yl)-pyridin-2-yl]-2-(methylamino)-propanamide], for which the IC50 turned out to be 130 nM. The molecule `CNC(C)C(=O)Nc1ccc(-c2c(C)nc3ccccn23)c(C#Cc2ccc(OC)c3ncccc23)n1` (stereo not shown) [Example 85, N-[6-[2-(8-methoxyquinolin-5-yl)ethynyl]-5-(2-methyl-imidazo[1,2-a]pyridin-3-yl)-pyridin-2-yl]-2-(methylamino)-propanamide] showed an IC50 of 259 nM. Next, `CNC(C)C(=O)Nc1ccc(-c2c(C)nc(N3CCOCC3)nc2C)c(C#Cc2ccc(-c3cccnc3)cc2)n1` (stereo not shown) [Example 86, N-[5-(4,6-dimethyl-2-morpholin-4-ylpyrimidin-5-yl)-6-[2-(4-pyridin-3-ylphenyl)-ethynyl]pyridin-2-yl]-2-(methyl-amino)propanamide]: 770 nM; `CNC(C)C(=O)Nc1ccc(-c2c(C)nc3ccccn23)c(C#Cc2ccc(-c3ccncc3)cc2)n1` (stereo not shown) [Example 91, 2-(methylamino)-N-[5-(2-methylimidazo[1,2-a]pyridin-3-yl)-6-[2-(4-pyridin-4-ylphenyl)-ethynyl]pyridin-2-yl]propan-amide]: 267 nM. `CNC(C)C(=O)Nc1ccc(-c2c(C)noc2C)c(C#Cc2ccc3cnccc3c2)n1` (stereo not shown) [Example 97, N-[5-(3,5-dimethyl-1,2-oxazol-4-yl)-6-(2-isoquinolin-6-ylethynyl)pyridin-2-yl]-2-(methylamino)propanamide]: the IC50 came to 644 nM. This IC50 lies about 2.4-fold higher than the previous one.

The molecule `CNC(C)C(=O)Nc1ccc(-c2cnc3ccccc3c2)c(C#Cc2ccc3ccccc3c2)n1` (stereo not shown) [Example 98, 2-(methylamino)-N-[6-(2-naphthalen-2-ylethynyl)-5-quinolin-3-yl-pyridin-2-yl]propanamide] showed an IC50 of 526 nM.

Molecule `CC(N)C(=O)Nc1ccc(-c2cccc(C(=O)O)c2)c(C#Cc2ccccc2)n1` (stereo not shown) [Example 99, 3-[6-(2-aminopropanoylamino)-2-(2-phenylethynyl)pyridin-3-yl]-benzoic acid] came in with an IC50 of 521 nM. This IC50 and that of the molecule before are within 1.5-fold of each other. Next, `CC(N)C(=O)Nc1ccc(-c2cccnc2)c(C#Cc2ccccc2)n1` (stereo not shown) [Example 101, 2-amino-N-[6-(2-phenylethynyl)-5-pyridin-3-ylpyridin-2-yl]-propanamide]: 128 nM; `CC(N)C(=O)Nc1ccc(-c2ccccc2F)c(C#Cc2ccccc2)n1` (stereo not shown) [Example 102, 2-amino-N-[5-(2-fluorophenyl)-6-(2-phenylethynyl)pyridin-2-yl]-propanamide]: 1980 nM; `CC(N)C(=O)Nc1ccc(-c2c(Cl)cccc2Cl)c(C#Cc2ccccc2)n1` (stereo not shown) [Example 103, 2-amino-N-[5-(2,6-dichlorophenyl)-6-(2-phenyl-ethynyl)pyridin-2-yl]propanamide]: 3040 nM. Molecule `Cc1cccc(C)c1-c1ccc(NC(=O)C(C)N)nc1C#Cc1ccccc1` (stereo not shown) [Example 104, 2-amino-N-[5-(2,6-dimethyl-phenyl)-6-(2-phenylethynyl)-pyridin-2-yl]propanamide] returned an IC50 of 2020 nM. Under `CC(N)C(=O)Nc1ccc(-c2cncnc2)c(C#Cc2ccccc2)n1` (stereo not shown) [Example 105, 2-amino-N-[6-(2-phenylethynyl)-5-pyrimidin-5-ylpyridin-2-yl]-propanamide] stands 220 nM. Under `CC(N)C(=O)Nc1ccc(-c2cncc(F)c2)c(C#Cc2ccccc2)n1` (stereo not shown) [Example 106, 2-amino-N-[5-(5-fluoropyridin-3-yl)-6-(2-phenylethynyl)pyridin-2-yl]propanamide] stands 243 nM. Consider `CC(N)C(=O)Nc1ccc(-c2ccccc2)c(C#Cc2ccccc2)n1` (stereo not shown) [Example 107, 2-amino-N-[5-phenyl-6-(2-phenylethynyl)pyridin-2-yl]-propanamide], for which the IC50 worked out at 1010 nM. As for `CC(N)C(=O)Nc1ccc(-c2ccccc2C#N)c(C#Cc2ccccc2)n1` (stereo not shown) [Example 109, 2-amino-N-[5-(2-cyanophenyl)-6-(2-phenylethynyl)pyridin-2-yl]-propanamide], the IC50 worked out at 650 nM. Next, `CC(N)C(=O)Nc1ccc(-c2ccccc2C(F)(F)F)c(C#Cc2ccccc2)n1` (stereo not shown) [Example 110, 2-amino-N-[6-(2-phenylethynyl)-5-[2-(trifluoromethyl)phenyl]-pyridin-2-yl]propanamide]: 3190 nM; `CC(N)C(=O)Nc1ccc(-c2cc(F)cc(F)c2)c(C#Cc2ccccc2)n1` (stereo not shown) [Example 111, 2-amino-N-[5-(3,5-difluorophenyl)-6-(2-phenyl-ethynyl)pyridin-2-yl]propanamide]: 1550 nM.
